Patent publication US20070142317A1, “Topical composition for treatment of skin disorders” (QLT USA, Inc., priority 2003, published 2007)
Several values for one entry are separate records, joined by “and”; a condition that tells them apart may be missing. Equal values may be shown once. Read-outs that look alike come from different tables or passages of the source.

Tests used:
U937 monocytoid cells [1] = test: TUNEL assay, dAd, adenosine and adenine dose ranging (Example 24); type: cell-based; details: for % FITC Shift / % PI Shift: 2 days
Description: U937 monocytoid cells were cultured in the presence of dAd at various concentrations of dAd (0, 50, 75, 100, 250 and 1000 micromoles/liter). The cells were incubated in dAd for 2 days. At the end of the treatment period, the cells were harvested for analysis by a TUNEL assay, a flow-cytometry-based method to quantify the percentage of cells that have undergone apoptosis. The level of apoptosis expressed as “% FITC shift”. The level of cell cycle arrest is expressed as “% PI shift”. As a positive control, the cells were exposed to 5 mM camptothecin for 2 days.

U937 monocytoid cells [2] = test: TUNEL assay, simultaneous exposure to dCF and dAd (Example 22); type: cell-based; details: camptothecin positive control, 2 days (5 mM printed elsewhere in the source)
Description: Methods Simultaneous Exposure—U937 monocytoid cells were cultured in the presence of 0, 1, 2.5, 10, 20, 50, 100, 150, 200, and 250 μM dAdo for 2 days. […] At the end of the treatment period, the cells were harvested for analysis by a TUNEL assay, a flow-cytometry-based method to quantify the percentage of cells that have undergone apoptosis. The level of apoptosis is expressed as “% FITC shift”. As a positive control, the cells were exposed to 5 mM camptothecin for 2 days.

U937 monocytoid cells [3] = test: TUNEL assay, dAd added at different times after dCF wash-out (Example 22); type: cell-based; details: 0 μM dCF + camptothecin positive control, time after wash-out 0 hr (5 mM printed elsewhere in the source)
Jurkat cells [4] = test: Cytokine secretion by ELISA (Example 31); type: cell-based
Description: In a search for a topical agent that can locally deplete levels of T-cells in the skin, apoptotic compounds were evaluated for their mechanisms of action. The ability that […] induce apoptosis by the same mechanisms was examined by cytokine secretion. […] At the end of the treatment period, the cells were harvested and Caspase-3 induction was determined using a flow-cytometry-based method to quantify the percentage of cells that induced Caspase-3. The level of apoptosis is expressed as “% FITC shift”. Cytokine secretion (IL-2, IL-6, TNF, and IFN-γ) was measured at the same time by ELISA and is expressed in pg/mL.

U937 monocytoid cells [5] = test: TUNEL apoptosis assay, sequential exposure to dCF then dAd (Example 21); type: cell-based; details: Camptothecin 5 uM, positive control
Description: (§1) Thus, it is hypothesized that the sequential exposure of the cells to dCF, followed by deoxyadenosine (dAd) will lead to greater levels of apoptosis than dCF alone. […] The cells were then incubated in dAd for 2 more days. At the end of the treatment period, the cells were harvested for analysis by a TUNEL assay, a flow-cytometry-based method to quantify the percentage of cells that have undergone apoptosis. The level of apoptosis is expressed as “% FITC shift”. As a positive control, the cells were exposed to 5 mM camptothecin for 2 days.

Jurkat T cells = test: as above; type: cell-based; details: Camptothecin 5 uM, positive control
Description: as §1

U937 monocytoid cells [6] = test: TUNEL assay, dAd added at different times after dCF wash-out (Example 22); type: cell-based; details: 0 μM dCF + camptothecin positive control, time after wash-out 0 hr (5 mM printed elsewhere in the source); remark: listed apart in the source
Description: At 0, 6, 24, and 48 hours, 50 μM dAd was added and the cells were incubated for an additional 2 days. At the end of the treatment period, the cells were harvested for analysis by a TUNEL assay, a flow-cytometry-based method to quantify the percentage of cells that have undergone apoptosis. The level of apoptosis is expressed as “% FITC shift”. As a positive control, the cells were exposed to 5 mM camptothecin for 2 days.

U-937 cells [7] = test: Cytokine secretion by ELISA (Example 31); type: cell-based; details: for effect on suppressing the production of IL-6: 46 hours
Description: (§2) In a search for a topical agent that can locally deplete levels of T-cells in the skin, apoptotic compounds were evaluated for their mechanisms of action. The ability that […] induce apoptosis by the same mechanisms was examined by cytokine secretion. […] Caspase-3 and cytokine (IL-2, IL-6, TNF, and IFN-γ) levels were determined and compared to controls at 23 and 46 hours. FdA was incorporated to evaluate the effect of the halogen group and Ara-C for its overlapping mechanisms of action. […] At the end of the treatment period, the cells were harvested and Caspase-3 induction was determined using a flow-cytometry-based method to quantify the percentage of cells that induced Caspase-3. The level of apoptosis is expressed as “% FITC shift”. Cytokine secretion (IL-2, IL-6, TNF, and IFN-γ) was measured at the same time by ELISA and is expressed in pg/mL. […]

U-937 cells [8] = test: Caspase-3 induction by flow cytometry (Example 31); type: cell-based; details: drug 1 μM, LPS-activated cells
Description: as §2

Jurkat cells [9] = test: Caspase-3 induction by flow cytometry (Example 31); type: cell-based; details: drug 1 μM, PHA-activated cells
Description: as §2

[10] = molecular target: T1, ribonucleotide reductase (RNR) (Homo sapiens, UniProt P23921); details: cited from earlier work
T1 sequence (P23921 1-792): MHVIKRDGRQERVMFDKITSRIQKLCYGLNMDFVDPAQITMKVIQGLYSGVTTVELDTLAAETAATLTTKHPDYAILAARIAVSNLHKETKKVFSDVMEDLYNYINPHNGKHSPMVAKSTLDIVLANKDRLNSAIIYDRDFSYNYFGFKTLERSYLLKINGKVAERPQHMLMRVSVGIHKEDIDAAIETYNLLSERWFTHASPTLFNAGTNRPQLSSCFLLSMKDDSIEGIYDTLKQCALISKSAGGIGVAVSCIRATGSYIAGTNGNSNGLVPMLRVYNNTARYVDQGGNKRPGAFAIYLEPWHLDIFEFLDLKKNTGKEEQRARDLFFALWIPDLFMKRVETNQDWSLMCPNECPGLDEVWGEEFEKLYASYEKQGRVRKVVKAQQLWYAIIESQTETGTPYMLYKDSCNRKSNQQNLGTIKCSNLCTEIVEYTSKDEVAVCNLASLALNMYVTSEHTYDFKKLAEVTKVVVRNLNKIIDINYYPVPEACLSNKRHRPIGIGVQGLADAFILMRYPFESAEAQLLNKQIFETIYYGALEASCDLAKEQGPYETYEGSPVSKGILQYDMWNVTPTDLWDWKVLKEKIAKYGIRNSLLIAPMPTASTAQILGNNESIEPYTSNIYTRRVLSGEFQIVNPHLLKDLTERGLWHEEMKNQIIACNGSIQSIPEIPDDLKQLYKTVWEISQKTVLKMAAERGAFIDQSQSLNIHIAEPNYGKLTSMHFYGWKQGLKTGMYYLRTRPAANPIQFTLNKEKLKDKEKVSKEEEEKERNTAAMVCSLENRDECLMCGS

[11] = for systemic exposure per day: topical 1.0% (10 mg/g), 7% systemic absorption
Description: (§3) Systemic absorption is a concern, because of the potential for serious adverse events, such as lymphopenia and renal toxicity. At oncology doses, these adverse reactions are usually minimized, but the therapeutic index is narrow. Another factor that plays a role in the safety of the formulation is the amount of product administered each day. Approximately 4 grams, 12 grams, and 40 grams of a topical formulation are estimated to cover 10%, 30%, and 100% of the body surface area.
as §3
as §3, with “Calculations of safety margins have been performed, based upon this assumption and the known toxicity profile of F-Ara-A when administered IV for oncology indications. Systemic” for “Systemic”
as §3

dCK = dCK (Homo sapiens, UniProt P27707); details: read-out: Km for dCK; cited from earlier work
ADA = ADA (Homo sapiens, UniProt P00813); details: cited from earlier work
[12] = systemic, deamination by CDA; cited from earlier work
[13] = 23 hr, drug 5 μM, positive control
[14] = 46 hr, drug 5 μM, positive control
[15] = Camptothecin 5 uM, positive control
[16] = 23 hr, drug 1 μM, LPS-activated cells
[17] = 46 hr, drug 1 μM, LPS-activated cells

Chain of dCK (P27707 whole entry, species assumed): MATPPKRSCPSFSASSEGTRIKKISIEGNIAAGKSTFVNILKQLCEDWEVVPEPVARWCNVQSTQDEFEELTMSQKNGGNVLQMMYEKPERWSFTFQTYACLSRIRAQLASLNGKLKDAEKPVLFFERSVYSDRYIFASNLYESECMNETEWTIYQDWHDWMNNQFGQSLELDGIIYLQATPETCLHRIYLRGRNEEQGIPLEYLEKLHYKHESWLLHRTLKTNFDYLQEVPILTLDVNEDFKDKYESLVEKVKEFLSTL
Chain of ADA (P00813 whole entry, species assumed): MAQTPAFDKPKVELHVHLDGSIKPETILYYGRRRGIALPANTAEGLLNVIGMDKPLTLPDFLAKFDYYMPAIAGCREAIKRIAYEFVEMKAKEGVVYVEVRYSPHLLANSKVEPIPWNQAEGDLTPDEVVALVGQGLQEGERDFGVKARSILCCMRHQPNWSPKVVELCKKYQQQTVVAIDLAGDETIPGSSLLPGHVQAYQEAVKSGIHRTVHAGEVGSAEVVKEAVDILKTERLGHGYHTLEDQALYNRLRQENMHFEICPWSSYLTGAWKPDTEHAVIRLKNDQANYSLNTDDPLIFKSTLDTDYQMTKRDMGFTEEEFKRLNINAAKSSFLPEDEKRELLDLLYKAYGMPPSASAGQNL

## Nc1ncnc2c1ncn2[C@@H]1O[C@H](CO)[C@@H](O)[C@H]1O [Adenosine, 9-β-D-Ribofuranosyl-9H-purin-6-amine]
U937 monocytoid cells [1]; at 1000 uM
  effect on apoptosis or cell cycle: slight hint of an effect
U937 monocytoid cells [1]; drug 50 uM, no dCF
  % FITC Shift: 0.7%
  % PI Shift: 1.7%
U937 monocytoid cells [1]; drug 75 uM, no dCF
  % FITC Shift: 0.6%
  % PI Shift: 2.1%
U937 monocytoid cells [1]; drug 100 uM, no dCF
  % FITC Shift: 0.6%
  % PI Shift: 2.0%
U937 monocytoid cells [1]; drug 250 uM, no dCF
  % FITC Shift: 0.6%
  % PI Shift: 1.9%
U937 monocytoid cells [1]; drug 1000 uM, no dCF
  % FITC Shift: 2.9%
  % PI Shift: 7.9%
U937 monocytoid cells [1]; up to 250 uM
  effect on apoptosis or cell cycle: little or no effect

## CC[C@@]1(O)C(=O)OCc2c1cc1n(c2=O)Cc2cc3ccccc3nc2-1 [Camptothecin]
U937 monocytoid cells [2]
  % FITC Shift: 79.5%
  % PI Shift: 43.4%
U937 monocytoid cells [3]
  % PI Shift: 29.2%
Jurkat cells [4]; [13]
  Cytokine Secretion IL-2 pg/ml Mean of 3 Replicates: 0 pg/mL
Jurkat cells [4]; [14]
  Cytokine Secretion IL-2 pg/ml Mean of 3 Replicates: 0 pg/mL
U937 monocytoid cells [5]
  % FITC Shift: 93.4%
Jurkat T cells
  % FITC Shift: 80.2%
U937 monocytoid cells [6]
  % FITC Shift: 84.3%
U937 monocytoid cells [1]; [15]
  % FITC Shift: 72.8%
  % PI Shift: 32.2%
U-937 cells [7]; [13]
  Cytokine Secretion IL-6 pg/ml Mean of 3 Replicates: 0 pg/mL
U-937 cells [7]; [14]
  Cytokine Secretion IL-6 pg/ml Mean of 3 Replicates: 0 pg/mL

## Nc1nc(F)nc2c1ncn2[C@H]1C[C@H](O)[C@@H](CO)O1 [FdA, 2-fluoro-2′-deoxyadenosine]
U-937 cells [8]; 23 hr
  Caspase-3 Induction % FITC Shift - Mean of 3 Replicates: 67%
U-937 cells [8]; 46 hr
  Caspase-3 Induction % FITC Shift - Mean of 3 Replicates: 51%
Jurkat cells [9]; 23 hr
  Caspase-3 Induction % FITC Shift - Mean of 3 Replicates: 75%
Jurkat cells [9]; 46 hr
  Caspase-3 Induction % FITC Shift - Mean of 3 Replicates: 95%
Jurkat cells [4]; 23 hr, drug 1 μM, PHA-activated cells
  Cytokine Secretion IL-2 pg/ml Mean of 3 Replicates: 41 pg/mL
Jurkat cells [4]; 46 hr, drug 1 μM, PHA-activated cells
  Cytokine Secretion IL-2 pg/ml Mean of 3 Replicates: 72 pg/mL
Jurkat cells [4]; Jurkat cells activated by PHA, 46 hours, drug 1 μM
  IL-2 concentration: 72 pg/mL
U-937 cells [7]; [16]
  Cytokine Secretion IL-6 pg/ml Mean of 3 Replicates: 7 pg/mL
U-937 cells [7]; drug 1 μM
  effect on suppressing the production of IL-6: little effect
U-937 cells [7]; [17]
  Cytokine Secretion IL-6 pg/ml Mean of 3 Replicates: 7 pg/mL and 8 pg/mL

## Nc1nc(Cl)nc2c1ncn2[C@H]1C[C@H](O)[C@@H](COP(=O)(O)OP(=O)(O)OP(=O)(O)O)O1 [CdATP, 2-chloro-2′-deoxyadenosine-5′-triphosphate]
[10]
  IC50: 60 nM

## Nc1ccn(C2OC(COP(=O)(O)OP(=O)(O)O)C(O)C2(F)F)c(=O)n1 (centres unmarked) [gemcitabine diphosphate]
[10]
  IC50: 200 nM

## Nc1ccn([C@@H]2O[C@H](CO)[C@@H](O)[C@@H]2O)c(=O)n1 [ara-C, Cytosine 1β-D-Arabinofuranoside]
[11]
  times safer than the oncology dose: 9643
[11]; 10% BSA (4 grams)
  systemic exposure per day: 2.8 mg
[11]; 30% BSA (12 grams)
  systemic exposure per day: 8.4 mg
[11]; 100% BSA (40 grams)
  systemic exposure per day: 28 mg
U-937 cells [7]; [16]
  Cytokine Secretion IL-6 pg/ml Mean of 3 Replicates: 7 pg/mL
U-937 cells [7]; drug 1 μM
  effect on suppressing the production of IL-6: little effect
U-937 cells [7]; [17]
  Cytokine Secretion IL-6 pg/ml Mean of 3 Replicates: 7 pg/mL

## Nc1[nH]cnc2ncnc1-2 [Adenine, 1H-Purin-6-amine]
U937 monocytoid cells [1]; at 1000 uM
  effect on apoptosis or cell cycle: slight hint of an effect
U937 monocytoid cells [1]; drug 50 uM, no dCF
  % FITC Shift: 0.4%
  % PI Shift: 2.0%
U937 monocytoid cells [1]; drug 75 uM, no dCF
  % FITC Shift: 0.6%
  % PI Shift: 2.4%
U937 monocytoid cells [1]; drug 100 uM, no dCF
  % FITC Shift: 0.3%
  % PI Shift: 2.5%
U937 monocytoid cells [1]; drug 250 uM, no dCF
  % FITC Shift: 0.7%
  % PI Shift: 3.4%
U937 monocytoid cells [1]; drug 1000 uM, no dCF
  % FITC Shift: 2.9%
  % PI Shift: 9.5%
U937 monocytoid cells [1]; up to 250 uM
  effect on apoptosis or cell cycle: little or no effect

## Nc1nc(F)nc2c1ncn2C1OC(COP(=O)(O)OP(=O)(O)OP(=O)(O)O)C(O)C1O (centres unmarked) [F-Ara-ATP]
[10]
  IC50: ~600 nM

## Nc1nc(Cl)nc2c1ncn2[C@@H]1O[C@H](CO)[C@@H](O)[C@@H]1F [Clofarabine]
dCK
  Km: 5 µM

## COc1nc(N)nc2c1ncn2[C@@H]1O[C@H](CO)[C@@H](O)[C@@H]1O [Nelarabine]
ADA
  Km to ADA relative to that of adenosine: less than 1%

## Nc1ccn([C@@H]2O[C@H](CO)[C@@H](O)C2(F)F)c(=O)n1 [Gemcitabine]
[12]
  half-life: 10 to 20 min
